One may read the IC50 as the concentration that inhibits the measured activity by half.

Some results are limits rather than exact numbers.

Sequence of SMYD3 (Q9H7B4 whole entry): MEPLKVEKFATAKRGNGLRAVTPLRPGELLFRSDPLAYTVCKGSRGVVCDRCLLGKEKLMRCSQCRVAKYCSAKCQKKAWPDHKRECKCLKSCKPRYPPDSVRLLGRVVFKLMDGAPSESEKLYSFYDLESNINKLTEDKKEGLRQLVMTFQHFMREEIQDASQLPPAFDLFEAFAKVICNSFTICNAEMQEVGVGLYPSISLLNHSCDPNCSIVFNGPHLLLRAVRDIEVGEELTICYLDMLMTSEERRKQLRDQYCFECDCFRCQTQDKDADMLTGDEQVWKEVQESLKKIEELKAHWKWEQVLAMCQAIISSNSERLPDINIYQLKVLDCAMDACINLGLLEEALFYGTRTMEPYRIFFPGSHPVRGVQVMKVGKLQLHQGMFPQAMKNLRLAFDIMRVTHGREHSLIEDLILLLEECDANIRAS

The first assay has as its target SMYD3 (Homo sapiens (Human), UniProt Q9H7B4). Kind of assay: SMYD3 biochemical assay (SMYD3 enzyme assay on MEKK2 protein substrate, 3H-SAM scintillation proximity assay). The following applies: Table 1A; average of n = 1 to n = 50; read-out: SMYD3 Biochem IC50. The method, boiled down:
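Native full-length human SMYD3, expressed in E. coli, was preincubated with compound for 30 min at room temperature in 25 mM Tris-Cl pH 8.0, 1 mM TCEP, 0.005% BSG and 0.005% Tween 20. ³H-SAM plus GST-MEKK2 then started the reaction. It was stopped with unlabeled SAM (100 uM final), and methylated MEKK2 was read by SPA.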
As for `Cc1nc(C(=O)N[C@H]2CC[C@H](N)CC2)n[nH]1` [compound 550, N-((1r,4r)-4-aminocyclohexyl)-5-methyl-1H-1,2,4-triazole-3-carboxamide], the 50% inhibitory concentration (IC50) was determined as 14.7 µM.

On to `NCCCC(=O)N1CCC(NC(=O)c2ncn[nH]2)CC1` [Cpd. No. 560, N-(1-(4-aminobutanoyl)piperidin-4-yl)-1H-1,2,4-triazole-5-carboxamide], for which the IC50 was more than 10 µM.

Take `N[C@H]1CC[C@H](NC(=O)c2cc3cc(Br)ccc3nc2O)CC1` [compound 565, N-((1r,4r)-4-aminocyclohexyl)-6-bromo-2-hydroxyquinoline-3-carboxamide]: the concentration for half-maximal inhibition (IC50) is more than 10 µM.

The assay is the same for the next values; noted with them: read-out: SMYD3 Biochem IC50.
With `CC(NC(=O)c1cc(=O)c2ccccc2o1)C1CCN(C(=O)[C@H](C)N)CC1` (stereo partly drawn) [compound 224, N-(1-(1-(L-alanyl)piperidin-4-yl)ethyl)-4-oxo-4H-chromene-2-carboxamide], the 50% inhibitory concentration (IC50) is more than 100 µM.

As for `CC(NC(=O)c1ncccc1O)C1CCN(C(=O)[C@H](C)N)CC1` (stereo partly drawn) [compound 511, N-(1-(1-(L-alanyl)piperidin-4-yl)ethyl)-3-hydroxypicolinamide], the 50% inhibitory concentration (IC50) is more than 50 µM. The same measure, in the same setting: the value for `CC(NC(=O)c1nc2ccccc2[nH]1)C1CCN(C(=O)[C@H](C)N)CC1` (stereo partly drawn) [compound 243, N-(1-(1-(L-alanyl)piperidin-4-yl)ethyl)-1H-benzo[d]imidazole-2-carboxamide] was 72.9 µM; that for `N[C@H]1CC[C@H](NC(=O)c2ccc3c(c2)no[n+]3[O-])CC1` [compound 286, 5-(((1r,4r)-4-aminocyclohexyl)carbamoyl)benzo[c][1,2,5]oxadiazole 1-oxide] was more than 100 µM. As to `NCCC(=O)N[C@H]1CC[C@H](NC(=O)c2ccc3c(c2)no[n+]3[O-])CC1` [compound 331, 5-(((1r,4r)-4-(3-aminopropanamido)cyclohexyl)carbamoyl)benzo[c][1,2,5]oxadiazole 1-oxide], the 50% inhibitory concentration (IC50) was 85.1 µM. With `N[C@H]1CC[C@H](NC(=O)[C@H]2CCc3ccccc3N2)CC1` [compound 436, (R)-N-((1r,4r)-4-aminocyclohexyl)-1,2,3,4-tetrahydroquinoline-2-carboxamide], the IC50 came to 12.5 µM.

As to `N[C@H]1CC[C@H](NC(=O)CCCn2ccnc2)CC1` [compound 333, N-((1r,4r)-4-aminocyclohexyl)-4-(1H-imidazol-1-yl)butanamide], the IC50 was more than 100 µM. As to `NCCC(=O)N[C@H]1CC[C@H](NC(=O)c2ccnc(N)c2)CC1` [compound 321, 2-amino-N-((1r,4r)-4-(3-aminopropanamido)cyclohexyl)isonicotinamide], the IC50 was determined as 16.6 µM. In the case of `N[C@H]1CC[C@H](NC(=O)[C@H]2C[C@H](O)CN2)CC1` [compound 435, (2R,4S)-N-((1r,4r)-4-aminocyclohexyl)-4-hydroxypyrrolidine-2-carboxamide], the concentration for half-maximal inhibition (IC50) was more than 100 µM. With `CC1=NN(c2ccc(C(=O)NC(C)C3CCN(C(=O)[C@H](C)N)CC3)cc2)C(=O)C1` (stereo partly drawn) [compound 218, N-(1-(1-(L-alanyl)piperidin-4-yl)ethyl)-4-(3-methyl-5-oxo-4,5-dihydro-1H-pyrazol-1-yl)benzamide], the IC50 is 77 µM.

In the case of `CC(NC(=O)c1cc2cccc(O)c2cc1O)C1CCN(C(=O)[C@H](C)N)CC1` (stereo partly drawn) [compound 441, N-(1-(1-(L-alanyl)piperidin-4-yl)ethyl)-3,5-dihydroxy-2-naphthamide], the IC50 worked out at 37.5 µM. With `Cn1ncc2ccc(C(=O)N[C@H]3CC[C@H](NC(=O)CCN)CC3)cc21` [compound 325, N-((1r,4r)-4-(3-aminopropanamido)cyclohexyl)-1-methyl-1H-indazole-6-carboxamide], the IC50 is more than 100 µM. Take `Cc1cnc(C(=O)NC(C)C2CCN(C(=O)[C@H](C)N)CC2)s1` (stereo partly drawn) [compound 396, N-(1-(1-(L-alanyl)piperidin-4-yl)ethyl)-5-methylthiazole-2-carboxamide]: the concentration for half-maximal inhibition (IC50) worked out at 10.6 µM.

In the case of `N[C@H]1CC[C@H](NC(=O)c2cn3ccsc3n2)CC1` [compound 318, N-((1r,4r)-4-aminocyclohexyl)imidazo[2,1-b]thiazole-6-carboxamide], the 50% inhibitory concentration (IC50) was more than 100 µM.

Turning to `NCCC(=O)N[C@H]1CC[C@H](NC(=O)c2cc(=O)c3ccccc3o2)CC1` [compound 327, N-((1r,4r)-4-(3-aminopropanamido)cyclohexyl)-4-oxo-4H-chromene-2-carboxamide], the IC50 was more than 100 µM. With `COc1cccc2[nH]cc(C(=O)N[C@H]3CC[C@H](NC(=O)CCN)CC3)c12` [compound 371, N-((1r,4r)-4-(3-aminopropanamido)cyclohexyl)-4-methoxy-1H-indole-3-carboxamide], the IC50 was more than 100 µM. The same measure, in the same setting: the value for `CC(NC(=O)c1ccc2c(c1)CNC2=O)C1CCN(C(=O)[C@H](C)N)CC1` (stereo partly drawn) [compound 469, N-(1-(1-(L-alanyl)piperidin-4-yl)ethyl)-1-oxoisoindoline-5-carboxamide] was more than 100 µM; that for `CC(NC(=O)c1ccc2[nH]ccc2c1)C1CCN(C(=O)[C@H](C)N)CC1` (stereo partly drawn) [compound 283, N-(1-(1-(L-alanyl)piperidin-4-yl)ethyl)-1H-indole-5-carboxamide] was more than 100 µM; that for `N[C@H]1CC[C@H](NC(=O)c2cc3cc(Cl)ccc3[nH]2)CC1` [compound 231, N-((1r,4r)-4-aminocyclohexyl)-5-chloro-1H-indole-2-carboxamide] was 91.5 µM. In the case of `Cc1nc2ccccc2c(C(=O)N[C@H]2CC[C@H](NC(=O)CCN)CC2)c1N` [compound 478, 3-amino-N-((1r,4r)-4-(3-aminopropanamido)cyclohexyl)-2-methylquinoline-4-carboxamide], the IC50 worked out at 31.6 µM. As for `CC(NC(=O)c1c[nH]c2ccccc12)C1CCN(C(=O)[C@H](C)N)CC1` (stereo partly drawn) [compound 268, N-(1-(1-(L-alanyl)piperidin-4-yl)ethyl)-1H-indole-3-carboxamide], the half-inhibitory concentration (IC50) was more than 100 µM. Turning to `CC(NC(=O)[C@H]1Cc2ccccc2CN1)C1CCN(C(=O)[C@H](C)N)CC1` (stereo partly drawn) [compound 306, (3R)-N-(1-(1-(L-alanyl)piperidin-4-yl)ethyl)-1,2,3,4-tetrahydroisoquinoline-3-carboxamide], the IC50 was determined as 48.1 µM. As for `CC(NC(=O)c1ccc2ncsc2c1)C1CCN(C(=O)[C@H](C)N)CC1` (stereo partly drawn) [compound 228, N-(1-(1-(L-alanyl)piperidin-4-yl)ethyl)benzo[d]thiazole-6-carboxamide], the IC50 was more than 100 µM.

With `CC(NC(=O)c1ccc2nonc2c1)C1CCN(C(=O)[C@H](C)N)CC1` (stereo partly drawn) [compound 237, N-(1-(1-(L-alanyl)piperidin-4-yl)ethyl)benzo[c][1,2,5]oxadiazole-5-carboxamide], the IC50 was more than 100 µM. For the molecule `N[C@H]1CC[C@H](C(=O)Nc2ccc3c(c2)CC(=O)N3)CC1` [compound 428, (1r,4r)-4-amino-N-(2-oxoindolin-5-yl)cyclohexane-1-carboxamide], the IC50 is 30.6 µM. With `N[C@H]1CC[C@H](NC(=O)Cc2ccc(F)cc2)CC1` [compound 208, N-((1r,4r)-4-aminocyclohexyl)-2-(4-fluorophenyl)acetamide], the IC50 was more than 100 µM.

Turning to `CC(NC(=O)c1ccc2c(c1)CCCC2)C1CCN(C(=O)[C@H](C)N)CC1` (stereo partly drawn) [compound 202, N-(1-(1-(L-alanyl)piperidin-4-yl)ethyl)-5,6,7,8-tetrahydronaphthalene-2-carboxamide], the concentration for half-maximal inhibition (IC50) was found to be 59 µM.

Staying with this assay, now noted: read-out: SMYD3 Biochem IC50 (μM)*.
Consider `CC(CN1CCCC1)C(=O)NC(c1ccccc1)C1CCNCC1` (centres unmarked) [compound 109, 2-methyl-N-(phenyl(piperidin-4-yl)methyl)-3-(pyrrolidin-1-yl)propanamide], for which the IC50 is 79 µM. `CCc1nc(C(=O)N[C@H]2CC[C@H](N)CC2)co1` [compound 16, N-((1r,4r)-4-aminocyclohexyl)-2-ethyloxazole-4-carboxamide]: the half-inhibitory concentration (IC50) came out at 128 µM. On to `N[C@H]1CC[C@H](NC(=O)c2ccc3[nH]c(=O)[nH]c3c2)CC1` [compound 73, N-((1r,4r)-4-aminocyclohexyl)-2-oxo-2,3-dihydro-1H-benzo[d]imidazole-5-carboxamide], for which the IC50 turned out to be 13.7 µM. On to `CC(NC(=O)c1ccc2c(c1)CCC(=O)N2)C1CCN(C(=O)[C@H](C)N)CC1` (stereo partly drawn) [compound 96, N-(1-(1-(L-alanyl)piperidin-4-yl)ethyl)-2-oxo-1,2,3,4-tetrahydroquinoline-6-carboxamide], for which the IC50 amounted to 193 µM. Consider `N[C@H]1CC[C@H](NC(=O)c2cc(-n3cnnc3)ccc2Cl)CC1` [compound 126, N-((1r,4r)-4-aminocyclohexyl)-2-chloro-5-(4H-1,2,4-triazol-4-yl)benzamide], for which the IC50 is 32 µM. Regarding `CN1C(=O)Cc2cc(C(=O)N[C@H]3CC[C@H](N)CC3)ccc21` [compound 84, N-((1r,4r)-4-aminocyclohexyl)-1-methyl-2-oxoindoline-5-carboxamide], the IC50 is 16.7 µM. Consider `Cc1cc2[nH]c(C(=O)NC3CCNCC3)cc2o1` [compound 58, 2-methyl-N-(piperidin-4-yl)-4H-furo[3,2-b]pyrrole-5-carboxamide], for which the IC50 is 76.1 µM. As to `Cc1nc(-c2ccc(C(=O)N[C@H]3CC[C@H](NC(=O)CCN)CC3)cc2)no1` [compound 136, N-((1r,4r)-4-(3-aminopropanamido)cyclohexyl)-4-(5-methyl-1,2,4-oxadiazol-3-yl)benzamide], the IC50 was more than 100 µM. In the case of `CC1(CNC(=O)c2ccc3c(c2)CC(=O)N3)CCNCC1` [compound 121, N-((4-methylpiperidin-4-yl)methyl)-2-oxoindoline-5-carboxamide], the half-maximal inhibitory concentration (IC50) worked out at 65.7 µM. On the same count and under the same terms, the value for `N[C@H]1CC[C@H](NC(=O)c2cncc(Cl)c2)CC1` [compound 117, N-((1r,4r)-4-aminocyclohexyl)-5-chloronicotinamide] was 87 µM; that for `NCCCCNC(=O)c1ccc2c(c1)CC(=O)N2` [compound 106, N-(4-aminobutyl)-2-oxoindoline-5-carboxamide] was 13.4 µM.
